According to patent publication US12029793B2, “pH low insertion peptide targeted delivery of potent cytotoxic compounds” (University of Rhode Island Board of Trustees, priority 2019, dated 2024):
Side chains are listed from the residue outwards. Ends that are not written are not given here. * marks the point of attachment. mertansine = COc1cc2cc(c1Cl)N(C)C(=O)C[C@H](OC(=O)[C@H](C)N(C)C(=O)CCS*)[C@]1(C)O[C@H]1[C@H](C)[C@@H]1C[C@@](O)(NC(=O)O1)[C@H](OC)/C=C/C=C(\C)C2; SPDP = linker on the drug for disulfide conjugation to Cys

What was measured:
[1] = tested on: panel of urinary bladder cancer cell lines; assay: Cell viability on panel of urinary bladder cancer cell lines (summary statements); assay type: cell-based; details: amanitin alone, two hours, concentrations up to 2 μM
Protocol: The cytotoxic and highly polar agents, like amanitin, may be especially effective in topical applications.
Cancer cells were loaded in the wells of 96-well plates (5,000 cells/well) and incubated overnight. The standard growth medium was replaced with medium without FBS, at pH 6.0 or 7.4, containing increasing amounts of pHLIP-S-S-amanitin (from 0 to 2.0 μM). The pH 6.0 medium was prepared by mixing 13.3 g of dry DMEM in 1 L of deionized water. After two-hour incubation with the pHLIP-S-S-amanitin, the construct was removed and replaced with standard growth medium. […] Cell viability was assessed after 48 hours using the colorimetric CellTiter 96 AQueous One Solution Cell Proliferation Assay by absorption measurement at 490 nm (FIG. 20B presents an example of the data obtained on SCaBER squamous cell carcinoma).
There was no difference in the viability of cells incubated with media, without construct, at pH 7.4 and pH 6.0; therefore, the role of pH was excluded from the consideration. Therapeutic index (TI) was calculated according to the equation: […]
Table 8 below contains EC50 values obtained for the treatment at pH 7.4 and pH 6.0 and calculated therapeutic index, which clearly indicated a pH-dependent cell action of pHLIP-S-S-amanitin. […]

[2] = tested on: HeLa human cervical tumors; assay: Tumor weight after IP treatment with pHLIP-S-S-calicheamicin; assay type: in vivo, female athymic nude mice; details: multiple IP injections once in 3-4 days, total ~1.5 mg/kg, vs non-treated control
Protocol: FIG. 21C depicts box plot presenting mean (filled squares), median, 25 and 75 percentiles (box) and standard deviation values of tumor weights after IP and IT treatment with pHLIP-S-S-calicheamicin compared to the control (non-treated) group. P-level was calculated using two-tailed test.
Calicheamicin modified with SPDP was synthesized and purified by Cfm, GmbH (FIG. 21A). Calicheamicin-SPDP was used to conjugate with Cys residue of pHLIP® peptide's membrane-inserting end to obtain pHLIP-S-S-calicheamicin. The pHLIP® peptide used in the study: […] (SEQ ID NO: 3) was prepared by solid-phase synthesis. Purification of the pHLIP-S-S-calicheamicin was conducted using RP-HPLC (the gradient: 10 mM TEAA buffer and acetonitrile), followed by lyophilization. The construct purity and identity was established by analytical RP-HPLC and surface-enhanced laser desorption/ionization time of flight (SELDI-TOF) mass spectroscopy, respectively. Construct concentration was calculated by absorbance at 280 nm for pHLIP® peptide with correction on absorbance of calicheamicin. pHLIP-S-S-calicheamicin dissolved in PBS was given as multiple intraperitoneal (IP) or intratumoral (IT) injections (once in 3-4 days) into mice bearing HeLa human cervical tumors in flank of female athymic nude mice.
The total combined dose of the multiple IP injections of pHLIP-S-S-calicheamicin was ˜1.5 mg/kg. […]

[3] = tested on: HeLa human cervical tumors; assay: Tumor weight after treatment with pHLIP-S-S-exatecan; assay type: in vivo, female athymic nude mice
[4] = tested on: MDA-MB-231 human triple negative breast or HeLa human cervical tumors; assay: Tumor weight after IP or IT treatment with pHLIP-S-S-mertansine; assay type: in vivo, female athymic nude mice; details: for tumor weight reduction: vs non-treated control
Protocol: FIG. 19C depicts a box plot presenting mean (filled square), median, 25 and 75 percentiles (box itself) and standard deviation values of the tumor weights collected after IP and IT treatment with pHLIP-S-S-mertansine compared to the control (non-treated) group. P-level was calculated using two-tailed test.
pHLIP-S-S-mertansine dissolved in PBS and was given as multiple intraperitoneal (IP) or intratumoral (IT) injections (once in 3-4 days) into mice bearing MDA-MB-231 human triple negative breast or HeLa human cervical tumors in flanks of female athymic nude mice. The total combined dose of the multiple IP injections of pHLIP-S-S-mertansine was […], and the total combined dose of the multiple IT injections of pHLIP-S-S-mertansine was ˜2.5 mg/kg. When the tumor reached a size of about 1 cm^3 (about 1 g) in the control (non-treated) group, the animals were sacrificed; tumors were collected (FIG. 19B) and weighted (FIG. 19C).
In a separate experiment, IT injections were performed, tumors disappeared and mice were left for several weeks.

Compound: CC[C@H](C)[C@@H]1NC(=O)CNC(=O)[C@@H]2Cc3c([nH]c4cc(O)ccc34)[S@+]([O-])C[C@H](NC(=O)CNC1=O)C(=O)N[C@@H](CC(N)=O)C(=O)N1C[C@H](O)C[C@H]1C(=O)N[C@@H]([C@@H](C)[C@@H](O)CO)C(=O)N2 [amanitin, alpha-amanitin]
- induction of cell death [1]: did not induce cell death

Compound: pHLIP-S-S-calicheamicin: Calicheamicin-SPDP conjugated with Cys residue of membrane-inserting end of pHLIP peptide ADDQNPWRAYLDLLFPTDTLLLDLLWCA (SEQ ID NO: 3) (ADDQNPWRAYLDLLFPTDTLLLDLLWC([SPDP-calicheamicin])A)
- tumor weight reduction [2]: About 88%

Compound: pHLIP-S-S-exatecan: Exatecan-SPDP conjugated with single Cys residue of membrane-inserting end of pHLIP peptide ADDQNPWRAYLDLLFPTDTLLLDLLWCA (SEQ ID NO: 3) (ADDQNPWRAYLDLLFPTDTLLLDLLWC([SPDP-exatecan])A)
- tumor weight reduction ([3]; IP administration, multiple injections once in 3-4 days, vs non-treated control): 50-60%
- tumor weight reduction ([3]; IT administration): more than 70%

Compound: pHLIP-S-S-mertansine: Mertansine (DM1) conjugated to membrane-inserting end of pHLIP peptide ADDQNPWRAYLDLLFPTDTLLLDLLWCA (SEQ ID NO: 3) via cleavable S-S link (ADDQNPWRAYLDLLFPTDTLLLDLLWC(mertansine)A)
- tumor disappearance ([4]; after IT administration, in some cases): tumor disappeared
- signs of toxicity ([4]; in the course of IP or IT treatment): no signs of toxicity
- tumor weight reduction ([4]; multiple IP injections once in 3-4 days, total combined dose −10 mg/kg): About 60%
- tumor weight reduction ([4]; multiple IT injections once in 3-4 days, total combined dose ~2.5 mg/kg): more than 90%
- cases with no tumor re-growth ([4]; separate experiment, IT injections, tumors disappeared, mice left for several weeks): 60%
